Test results as given in patent US20090082425A1 (priority 2007, published 2009).

Test system: DU-145
Assay type: cell-based, human

For `CC(=O)O[C@H]1C(=O)[C@@]2(C)[C@H]([C@H](OC(=O)c3ccccc3)[C@]3(O)C[C@H](OC(=O)[C@H](O)[C@@H](NC(=O)c4ccccc4)c4ccccc4)C(C)=C1C3(C)C)[C@]1(OC(C)=O)CO[C@@H]1C[C@@H]2O` [Taxol], the “Cell survival rate (%)” value was 63.88%.
